Measured values taken from patent US20240158446A1, “CYCLIC COMPOUND HAVING SELECTIVE INHIBITORY ACTION ON KRAS OVER HRAS AND NRAS” (CHUGAI SEIYAKU KABUSHIKI KAISHA, priority 2021, published 2024).
pKd: −log10 of the molar value.

How the values were obtained:
[1] = target: GDP-bound HRAS wild-type protein (Homo sapiens, UniProt P01112); assay: Binding to HRAS by surface plasmon resonance (SPR), Single Cycle Kinetics; conditions: SPR, GDP-bound HRAS wild-type protein vs GDP-bound KRAS wild-type protein
[2] = target: GDP-bound NRAS wild-type protein (Homo sapiens, UniProt P01111); assay: Binding to NRAS by surface plasmon resonance (SPR), Single Cycle Kinetics; conditions: SPR, GDP-bound NRAS wild-type protein vs GDP-bound KRAS wild-type protein
[3] = target: GDP-bound KRAS wild-type protein (Homo sapiens, UniProt P01116); assay: Binding to KRAS by surface plasmon resonance (SPR), Single Cycle Kinetics; conditions: SPR Single Cycle Kinetics, GDP-bound KRAS wild-type protein, 1:1 binding model; read-out: KRAS KD
GDP-bound KRAS wild-type protein, sequence (P01116 whole entry): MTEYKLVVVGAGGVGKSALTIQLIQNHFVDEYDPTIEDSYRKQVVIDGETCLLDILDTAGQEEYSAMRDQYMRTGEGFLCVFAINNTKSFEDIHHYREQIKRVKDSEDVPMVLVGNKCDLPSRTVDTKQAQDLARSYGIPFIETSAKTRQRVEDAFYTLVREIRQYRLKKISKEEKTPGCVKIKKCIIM

GDP-bound NRAS wild-type protein, sequence (P01111 whole entry): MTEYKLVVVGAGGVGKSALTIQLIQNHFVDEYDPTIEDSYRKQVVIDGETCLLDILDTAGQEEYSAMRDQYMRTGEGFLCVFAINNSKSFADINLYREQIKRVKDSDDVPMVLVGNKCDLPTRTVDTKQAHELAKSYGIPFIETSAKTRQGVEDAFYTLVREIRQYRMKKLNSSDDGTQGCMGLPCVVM
GDP-bound HRAS wild-type protein, sequence (P01112 whole entry): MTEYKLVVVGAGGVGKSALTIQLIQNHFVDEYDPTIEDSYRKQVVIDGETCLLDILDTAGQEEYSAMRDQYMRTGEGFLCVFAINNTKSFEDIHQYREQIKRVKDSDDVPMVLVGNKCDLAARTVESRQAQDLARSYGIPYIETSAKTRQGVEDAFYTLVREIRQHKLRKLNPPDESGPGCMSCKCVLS

Row | pKd [3] | Structure (SMILES) | HRAS/KRAS (ratio of KD value with respect to HRAS to KD value with respect to KRAS) [1] | NRAS/KRAS (ratio of KD value with respect to NRAS to KD value with respect to KRAS) [2]
1 | 9.62 | CC[C@H](C)[C@@H]1NC(=O)[C@H](CC(C)C)N(C)C(=O)C[C@@H](C(=O)N2CCOCC2)N(C)C(=O)[C@H](C2CCCC2)N(C)C(=O)C2(CCCC2)NC(=O)[C@@H]2CCCN2C(=O)[C@H](CCc2cc(F)c(C(F)(F)F)c(F)c2)NC(=O)CN(C)C(=O)[C@H](Cc2ccc(C(F)(F)F)cc2)N2CCCC[C@@H](C2=O)N(C)C(=O)CN(CC)C1=O [PP0545] | B (a compound having 3 or more and less than 10 is denoted as B) | B (a compound having 3 or more and less than 10 is denoted as B)
2 | 7.82 | CC[C@H](C)[C@@H]1NC(=O)[C@H](CC(C)C)N(C)C(=O)C[C@@H](C(=O)N2CCOCC2)N(C)C(=O)[C@H](C2CCCC2)N(C)C(=O)C2(CCCC2)NC(=O)[C@@H]2CCCN2C(=O)[C@H](CCc2cc(F)c(C(F)(F)F)c(F)c2)NC(=O)CN(C)C(=O)[C@H](Cc2ccc(C(F)(F)F)cc2)N2CCCC[C@@H](C2=O)N(C)C(=O)[C@@H]2CCCCN2C1=O [PP0548] | B (a compound having 3 or more and less than 10 is denoted as B) | C (A compound having a KD ratio of 0.1 or more and less than 3 is denoted as C)
3 | 10.21 | CC[C@H](C)[C@@H]1NC(=O)[C@H](C)N(C)C(=O)C[C@@H](C(=O)N2CCOCC2)N(C)C(=O)[C@H](C2CCCC2)N(C)C(=O)C2(CCCC2)NC(=O)[C@@H]2CCCN2C(=O)[C@H](CCc2cc(F)c(C(F)(F)F)c(F)c2)NC(=O)CN(C)C(=O)[C@H](Cc2ccc(C(F)(F)F)cc2)N2CCCC[C@@H](C2=O)N(C)C(=O)CN(C)C1=O [PP0549] | B (a compound having 3 or more and less than 10 is denoted as B) | C (A compound having a KD ratio of 0.1 or more and less than 3 is denoted as C)
4 | 10.28 | CC[C@H](C)[C@@H]1NC(=O)[C@H](CC(C)C)N(C)C(=O)C[C@@H](C(=O)N2CCOCC2)N(C)C(=O)[C@H](C2CCCC2)N(C)C(=O)C2(CCCC2)NC(=O)[C@@H]2CCCN2C(=O)[C@H](CCc2cc(F)c(C(F)(F)F)c(F)c2)NC(=O)CN(C)C(=O)[C@H](Cc2ccc(C(F)(F)F)cc2)N2CCCC[C@@H](C2=O)N(C)C(=O)CN(C)C1=O [PP0552] | B (a compound having 3 or more and less than 10 is denoted as B) | B (a compound having 3 or more and less than 10 is denoted as B)
5 | 10.62 | CC[C@H](C)[C@@H]1NC(=O)[C@H](CC(C)C)N(C)C(=O)C[C@@H](C(=O)N2CCOCC2)N(C)C(=O)[C@H](C2CCCC2)N(C)C(=O)C2(CCCC2)NC(=O)[C@@H]2C[C@H](O)CN2C(=O)[C@H](CCc2cc(F)c(C(F)(F)F)c(F)c2)NC(=O)CN(C)C(=O)[C@H](Cc2ccc(C(F)(F)F)cc2)N2CCCC[C@@H](C2=O)N(C)C(=O)CN(C)C1=O [PP0556] | B (a compound having 3 or more and less than 10 is denoted as B) | C (A compound having a KD ratio of 0.1 or more and less than 3 is denoted as C)
6 | 9.96 | CC[C@H](C)[C@@H]1NC(=O)[C@H](CC(C)C)N(C)C(=O)C[C@@H](C(=O)N2CCOCC2)N(C)C(=O)[C@H](C2CCCC2)N(C)C(=O)C2(CCCC2)NC(=O)[C@@H]2C[C@H](OC)CN2C(=O)[C@H](CCc2cc(F)c(C(F)(F)F)c(F)c2)NC(=O)CN(C)C(=O)[C@H](Cc2ccc(C(F)(F)F)cc2)N2CCCC[C@@H](C2=O)N(C)C(=O)CN(C)C1=O [PP0557] | B (a compound having 3 or more and less than 10 is denoted as B) | B (a compound having 3 or more and less than 10 is denoted as B)
7 | 9.80 | CC[C@H](C)[C@@H]1NC(=O)[C@H](CC(C)C)N(C)C(=O)C[C@@H](C(=O)N2CCOCC2)N(C)C(=O)[C@H](C2CCCC2)N(C)C(=O)C2(CC2)NC(=O)[C@@H]2CCCN2C(=O)[C@H](CCc2cc(F)c(C(F)(F)F)c(F)c2)NC(=O)CN(C)C(=O)[C@H](Cc2ccc(C(F)(F)F)cc2)N2CCCC[C@@H](C2=O)N(C)C(=O)CN(C)C1=O [PP0559] | B (a compound having 3 or more and less than 10 is denoted as B) | B (a compound having 3 or more and less than 10 is denoted as B)
8 | 9.51 | CC[C@H](C)[C@@H]1NC(=O)[C@H](CC(C)C)N(C)C(=O)C[C@@H](C(=O)N2CCOCC2)N(C)C(=O)[C@H](C2CCCC2)N(C)C(=O)C2(CCCCC2)NC(=O)[C@@H]2CCCN2C(=O)[C@H](CCc2cc(F)c(C(F)(F)F)c(F)c2)NC(=O)CN(C)C(=O)[C@H](Cc2ccc(C(F)(F)F)cc2)N2CCCC[C@@H](C2=O)N(C)C(=O)CN(C)C1=O [PP0561] | B (a compound having 3 or more and less than 10 is denoted as B) | B (a compound having 3 or more and less than 10 is denoted as B)

Second part, the compound before the results:

Row | Structure (SMILES) | pKd [3] | HRAS/KRAS (ratio of KD value with respect to HRAS to KD value with respect to KRAS) [1] | NRAS/KRAS (ratio of KD value with respect to NRAS to KD value with respect to KRAS) [2]
9 | CC[C@H](C)[C@@H]1NC(=O)[C@H](CC(C)C)N(C)C(=O)C[C@@H](C(=O)N2CCOCC2)N(C)C(=O)[C@H](C2CCCC2)N(C)C(=O)C2(CCCC2)NC(=O)[C@@H]2CCCN2C(=O)[C@H](CCc2cc(F)c(C(F)(F)F)c(F)c2)NC(=O)CN(C)C(=O)[C@H](Cc2ccc(C(F)(F)F)cc2)N2CCCC[C@@H](C2=O)N(C)C(=O)[C@H](C)NC1=O [PP0543] | 9.00 | B (a compound having 3 or more and less than 10 is denoted as B) | B (a compound having 3 or more and less than 10 is denoted as B)
10 | CC[C@H](C)[C@@H]1NC(=O)[C@H](CC(C)C)N(C)C(=O)C[C@@H](C(=O)N2CCOCC2)N(C)C(=O)[C@H](C2CCCC2)N(C)C(=O)C2(CCCC2)NC(=O)[C@@H]2CCCN2C(=O)[C@H](CCc2cc(F)c(C(F)(F)F)c(F)c2)NC(=O)CN(C)C(=O)[C@H](Cc2ccc(C(F)(F)F)cc2)N2CCCC[C@@H](C2=O)N(C)C(=O)[C@H](C)N(C)C1=O [PP0544] | 7.74 | B (a compound having 3 or more and less than 10 is denoted as B) | B (a compound having 3 or more and less than 10 is denoted as B)
11 | CC[C@H](C)[C@@H]1NC(=O)[C@H](CC(C)C)N(C)C(=O)C[C@@H](C(=O)N2CCOCC2)N(C)C(=O)[C@H](C2CCCC2)N(C)C(=O)C2(CCCC2)NC(=O)[C@@H]2CCCN2C(=O)[C@H](CCc2cc(F)c(C(F)(F)F)c(F)c2)NC(=O)CN(C)C(=O)[C@H](Cc2ccc(C(F)(F)F)cc2)N2CCCC[C@@H](C2=O)N(C)C(=O)[C@@H]2CCCN2C1=O [PP0547] | 9.44 | B (a compound having 3 or more and less than 10 is denoted as B) | B (a compound having 3 or more and less than 10 is denoted as B)
12 | CCO[C@@H]1C[C@H]2C(=O)NC3(CCCC3)C(=O)N(C)[C@@H](C3CCCC3)C(=O)N(C)[C@H](C(=O)N3CCOCC3)CC(=O)N(C)[C@@H](CC(C)C)C(=O)N[C@@H]([C@@H](C)CC)C(=O)N(C)CC(=O)N(C)[C@H]3CCCCN(C3=O)[C@@H](Cc3ccc(C(F)(F)F)cc3)C(=O)N(C)CC(=O)N[C@@H](CCc3cc(F)c(C(F)(F)F)c(F)c3)C(=O)N2C1 [PP0554] | 10.44 | B (a compound having 3 or more and less than 10 is denoted as B) | B (a compound having 3 or more and less than 10 is denoted as B)
13 | CC[C@H](C)[C@@H]1NC(=O)[C@H](CC(C)C)N(C)C(=O)C[C@@H](C(=O)N2CCOCC2)N(C)C(=O)[C@H](C2CCCC2)N(C)C(=O)C2(CCCC2)NC(=O)[C@@H]2CC(=O)CN2C(=O)[C@H](CCc2cc(F)c(C(F)(F)F)c(F)c2)NC(=O)CN(C)C(=O)[C@H](Cc2ccc(C(F)(F)F)cc2)N2CCCC[C@@H](C2=O)N(C)C(=O)CN(C)C1=O [PP0555] | 10.18 | B (a compound having 3 or more and less than 10 is denoted as B) | B (a compound having 3 or more and less than 10 is denoted as B)
14 | CC[C@H](C)[C@@H]1NC(=O)[C@H](CC(C)C)N(C)C(=O)C[C@@H](C(=O)N2CCOCC2)N(C)C(=O)[C@H](C2CCCC2)N(C)C(=O)C2(CCC2)NC(=O)[C@@H]2CCCN2C(=O)[C@H](CCc2cc(F)c(C(F)(F)F)c(F)c2)NC(=O)CN(C)C(=O)[C@H](Cc2ccc(C(F)(F)F)cc2)N2CCCC[C@@H](C2=O)N(C)C(=O)CN(C)C1=O [PP0560] | 10.30 | B (a compound having 3 or more and less than 10 is denoted as B) | B (a compound having 3 or more and less than 10 is denoted as B)
15 | CC[C@H](C)[C@@H]1NC(=O)[C@H](CC(C)C)N(C)C(=O)C[C@@H](C(=O)N2CCOCC2)N(C)C(=O)[C@H](C2CCCC2)N(C)C(=O)C2(CC(F)(F)C2)NC(=O)[C@@H]2CCCN2C(=O)[C@H](CCc2cc(F)c(C(F)(F)F)c(F)c2)NC(=O)CN(C)C(=O)[C@H](Cc2ccc(C(F)(F)F)cc2)N2CCCC[C@@H](C2=O)N(C)C(=O)CN(C)C1=O [PP0562] | 10.40 | B (a compound having 3 or more and less than 10 is denoted as B) | B (a compound having 3 or more and less than 10 is denoted as B)
